# Legend:
# [1] = tested on: non-NMDA glutamate receptors in mouse cortical cells; experiment: CNQX displacement assay with homogenized mouse cortical cells, visible difference absorption spectra; type: binding; conditions: homogenized mouse cortical cells with CNQX in PBS pH 7.4; test compound 100 μM; 310 nm to 450 nm; FIG. 2 traces A-B
# Description: Cortical neuronal cultures: Mixed cortical cell cultures containing both neurons and astrocytes were prepared from fetal mice (15-16 day gestation) as described by Asrari and Lobner (14). Briefly, dissociated cortical cells were plated on a preexisting astrocyte monolayer in a 24-well plate (a plating density of ˜2.5×10^5 cells per well). The plating medium was Eagle's minimal essential medium (MEM) (Earle's salts, supplied glutamine-free) supplemented with 5% fetal bovine serum, 5% horse serum, 2 mM glutamine and 20 mM glucose. Non-neuronal cell division was halted at 3-5 days in vitro by 3-day exposure to […] cytosine arabinoside. Cultures were maintained in humidified 5% CO2 incubators at 37° C. and were used for experiments at 14-16 days in vitro.
# Absorption measurements: The UV-visible absorption spectra were obtained using Agilent 8453 or Shimadzu UV 2501 spectrometers. The spectra were recorded in the 310 nm to 450 nm range, at a spectral resolution of 2 nm, using a 1 cm quartz cuvette as the sample holder. […]
# Dissociated mouse cortical cells were obtained as outlined in the Materials and Methods section. […] CNQX was added to the cells such that the final absorption of the sample in the 310 nm to 450 nm range was less than 1 absorbance unit. […]
# [2] = molecular target: T1, GluR2-S1S2 (ligand-binding domain of the GluR2 subunit of the glutamate receptor) (Rattus norvegicus, UniProt P19491); experiment: Quinoxaline (CNQX) displacement assay with GluR2-S1S2, visible difference absorption spectra; conditions: GluR2-S1S2 bound to 25 μM CNQX; test ligand 50 μM; phosphate buffer pH 7.4; 310 nm to 450 nm; FIG. 1 traces B-E
# T1 construct: made in house
# T1 sequence (P19491 411-527): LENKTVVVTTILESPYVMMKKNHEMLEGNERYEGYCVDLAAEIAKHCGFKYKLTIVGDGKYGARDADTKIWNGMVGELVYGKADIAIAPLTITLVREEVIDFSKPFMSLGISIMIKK
# T1 sequence (P19491 653-796): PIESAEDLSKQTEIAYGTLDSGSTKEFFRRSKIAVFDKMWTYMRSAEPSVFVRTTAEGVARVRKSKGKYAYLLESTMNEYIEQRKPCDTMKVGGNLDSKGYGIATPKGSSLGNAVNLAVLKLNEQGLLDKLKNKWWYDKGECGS
# Description: To begin, a baseline or control spectrum of the free quinoxaline derivative in buffer solution is generated. A second spectrum is then taken of the quinoxaline admixed with the receptor under investigation. A difference spectrum is then generated between the first spectrum (free quinoxaline) and second spectrum (protein-bound quinoxaline). The characteristic features of this difference spectrum arise due to changes in the electronic spectrum of the quinoxaline derivative bound to the protein as compared to the electronic spectrum of the free quinoxaline. Thus, the difference spectrum can be used as the control to test for compounds that compete for the same binding site as quinoxaline derivative.
# With the difference spectrum in hand as a control, a known amount of a test agent is added to a test well containing the receptor protein and the quinoxaline derivative. […] A visible spectrum is than taken of the test well. This test spectrum is then compared to the control spectrum to see if they share the same characteristic changes in the electronic character of the quinoxaline. […]
structure (smiles),measurement,setting,value
N[C@@H](CCC(=O)O)C(=O)O [glutamate],displacement of CNQX from the non-NMDA glutamate receptors in cortical cells (difference spectrum),[1],is displaced by the addition of glutamate
NCCCC(=O)O [γ-amino butyric acid],displacement of bound CNQX from the receptor protein (difference spectrum),[2],does not displace CNQX from the protein
same,displacement of CNQX from the non-NMDA glutamate receptors in cortical cells (difference spectrum),[1],CNQX is not displaced
